Structures are written as SMILES.

Here are results for four molecules from patent publication US10045984B2, “Combination therapy” (priority 2008, dated 2018).

In assay [1] the test system is Influenza A, B and Rhino virus. Kind of assay: Group B randomized double blind trial in uncomplicated viral upper respiratory tract infection, with case reports. Format: in vivo, human. The settings on record: for clinical state: influenza type B; for clinical state at day 5 after starting treatment: n=5 per group. The text has this: RT-PCR (reverse transcriptase-PCR) was used for subtyping and for detection of rhinovirus. RT-PCR is done on swabs. In the case of the patient groups, RT-PCR determined the presence of subtypes influenza H3, rhino virus and RSV. IFA and RT-PCR was repeated after treatment to ensure viral eradication from the patient.
Group B patients included 20 patients, aged 19 years to 57 years, 14 men and 6 women, with influenza but uncomplicated upper airway infection. […] The viruses identified were Influenza A, B and Rhino virus.
On day 3-5 of the illness (influenza) they received either a zinc/trimethoprim mixture, zinc, trimethoprim alone or vitamin C alone in a randomized double blind trial. The subjects were reviewed at 2 and 5 days after starting treatment.
The Tri-Z dose ranged between 100 mg (82 mg Tri and 18 mg zinc) to 200 mg (164 mg Tri and 36 mg zinc) twice daily. Trimethoprim only was administered in quantities of between 100 mg and 200 mg twice daily. Zinc only was administered in quantities of 50 mg three times daily. Vitamin C was administered in 1 g quantities twice daily.
Points on the graph shown in FIG. 6 are group means (for n=5) which highlights the difference in illness duration. […] Repeat IFA and RT-PCR tests were negative by day 2.
(i) person presented with headache, no photophobia, body ache, feeling tired and lethargic, blocked runny nose, dry throat and feeling hot for the last 4 days. Temperature was 38.5 C, respiratory rate 18/min, heart rate 75/min regular, BP 115/70 mmHg, clear nasal discharge, blood shot eyes, clear throat. Chest was clear with normal breath sounds. No cervical lymph nodes.
Nasal aspirate and throat swab was taken for virus and bacteria. […] Cultures were negative for bacterial growth at 48 and 72 hours.
They were commenced on the zinc/trimethoprim mixture twice daily (initial dose 200 mg of trimethoprim and 100 mg zinc sulphate for first dose then reduced to 100 mg of trimethoprim and 50 mg of zinc sulphate given simultaneously on an empty stomach) for 5 days.
(ii) person presented with body ache, generally feeling tired, blocked runny nose, sore eyes, dry throat, headache and feeling hot for the last 4 days. Their temperature was 38 C. Their chest was clear with normal breath sounds. Respiratory rate 16/min, heart rate 84/min regular, BP 135/78 mmhg. Nasal aspirate and throat swabs was taken for virus and bacteria.
Bacterial culture at 48 and 72 hours were negative.
(iii) person presented with feeling hot, blocked nose that is runny, headache, body ache, dry cough, sore eyes for last 4 days.
Temperature was 38.5 C, heart rate 60/min, respiratory rate 16/min, BP 120/70 mmHg, chest clear with normal breath sounds, no lymphadenopathy, conjunctival congestion, throat clear.
Nasal aspirate and throat swab were taken for virus and bacteria. They were started on Trimethoprim 200 mg twice daily for 5 days.

Assay [2] has as its system viral replication. The conditions noted are these: cited from earlier work.
[3] abbreviates: case (ii) person, day 5 after treatment.

With `COc1cc(Cc2cnc(N)nc2N)cc(OC)c1OC` [trimethoprim, 5-(3,4,5-trimethoxybenzyl)pyrimidine-2,4-diamine], the “nasal aspirate viral test” value in assay [1] (case (iii) person, day 5 of treatment) is “influenza type B”. Moreover, the temperature in assay [1] (case (iii) person, day 5 of treatment, 38.5 C before) amounted to 37.8 C. Also, the clinical state entry in assay [1] (case (iii) person, 200 mg twice daily, 2 days later) was “the same”. The “day of the illness when recovery started” value in assay [1] (case (iii) person, well enough to go back to work) is 14 days. In assay [1], the “clinical state at day 5 after starting treatment” value was “not back to normal”.

Take `O=C1O[C@H]([C@@H](O)CO)C(O)=C1O` [vitamin C]: the “clinical state at day 5 after starting treatment” value in assay [1] was “not back to normal”.

As for `O=S(=O)([O-])[O-].[Zn+2]` [zinc sulphate], the repeat viral test entry in assay [1] (case (ii) person, 2 days after treatment) is recorded as “influenza type B”. Further, in assay [1] (setting [3]), the control of symptoms result is on record as “ineffective” and the “nasal aspirate viral test” value is on record as “influenza type B”. The clinical state entry in assay [1] (case (ii) person, 100 mg twice daily, 2 days after treatment) is given as “the same”. In addition, the “day of the illness of return to work” value in assay [1] (case (ii) person, still feeling unwell) amounted to 14 days.

Take `[Zn]` [zinc]: in assay [1], the “clinical state at day 5 after starting treatment” value was “not back to normal”. Besides, the “concentration in a subject that affects viral replication” value in assay [2] is given as 0.05 mMolar.
